Here are results for six compounds from paper PMC4564290 (Journal of Molecular and Cellular Cardiology, 2015).

Entries after “also recorded” stand apart in the source; their conditions may differ.

The target of one data set is N588K hERG (Homo sapiens, UniProt Q12809, N588K). The arrangement: expressed in transfected cells; host or cells: HEK cells. The note with it: IC50 mutant/IC50 WT; mammalian expression; ref 15 of supplement; cited from earlier work.
In data set [1] the target is T1, wild-type (WT) hERG channels (Homo sapiens, UniProt Q12809).
T1 construct: expressed in transfected cells
T1 sequence (Q12809 whole entry): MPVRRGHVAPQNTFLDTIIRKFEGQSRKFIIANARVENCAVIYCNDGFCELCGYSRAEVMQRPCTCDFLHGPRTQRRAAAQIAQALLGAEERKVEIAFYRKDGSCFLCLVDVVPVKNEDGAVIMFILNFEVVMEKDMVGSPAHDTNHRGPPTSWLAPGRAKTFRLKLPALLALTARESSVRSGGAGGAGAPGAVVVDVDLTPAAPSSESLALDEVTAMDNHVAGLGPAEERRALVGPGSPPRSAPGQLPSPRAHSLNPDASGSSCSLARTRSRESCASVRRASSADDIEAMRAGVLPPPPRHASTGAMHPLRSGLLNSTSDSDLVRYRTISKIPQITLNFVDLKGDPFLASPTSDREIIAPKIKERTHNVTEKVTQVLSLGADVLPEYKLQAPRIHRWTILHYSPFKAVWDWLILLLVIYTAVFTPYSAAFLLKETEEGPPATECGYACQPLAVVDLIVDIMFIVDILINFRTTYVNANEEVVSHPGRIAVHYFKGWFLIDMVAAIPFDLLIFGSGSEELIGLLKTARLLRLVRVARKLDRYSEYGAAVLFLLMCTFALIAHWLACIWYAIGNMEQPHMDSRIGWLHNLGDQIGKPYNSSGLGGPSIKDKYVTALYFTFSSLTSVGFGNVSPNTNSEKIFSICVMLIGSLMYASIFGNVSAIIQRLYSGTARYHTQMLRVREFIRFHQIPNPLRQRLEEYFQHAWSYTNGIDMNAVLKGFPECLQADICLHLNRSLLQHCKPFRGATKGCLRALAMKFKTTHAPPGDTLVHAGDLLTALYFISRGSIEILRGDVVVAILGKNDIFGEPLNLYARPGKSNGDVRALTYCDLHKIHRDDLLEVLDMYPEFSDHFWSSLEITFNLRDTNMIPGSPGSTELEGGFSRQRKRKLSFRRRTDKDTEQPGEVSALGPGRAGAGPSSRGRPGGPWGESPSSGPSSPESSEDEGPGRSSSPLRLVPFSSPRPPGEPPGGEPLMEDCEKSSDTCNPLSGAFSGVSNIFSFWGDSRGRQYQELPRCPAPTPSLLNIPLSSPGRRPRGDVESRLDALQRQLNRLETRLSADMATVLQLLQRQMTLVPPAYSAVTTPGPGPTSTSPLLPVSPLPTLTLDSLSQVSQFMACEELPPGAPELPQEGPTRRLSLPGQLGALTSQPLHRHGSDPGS
In words: Whole-cell patch clamp of WT IhERG in HEK293 cells at 37 °C. The format is cell-based. The note with it: for Fraction of unblocked IhERG: 6–8 min; for Whole-cell IhERG current density: ~6 min, drug-free control 315.3 ± 56.7. A general note: In patch-clamp work, channel activity is measured electrically.
Protocol: (§1) HEK cells stably or transiently expressing hERG channel constructs were cultured as previously described [[34,37]]. The cells were plated in 40 mm petri dishes at least 48 h before transfection and incubated at 37 °C (5% CO2). Cells were transfected with Lipofectamine™ LTX (Invitrogen) following the manufacturer's instructions. The amount of transfected hERG construct DNA varied between 0.2 and 1.0 μg depending on the level of functional expression (assessed as current magnitudes) of each hERG channel construct. 0.5 to 1.0 μg of CD8 was co-transfected as a transfection-marker and successfully transfected cells were identified using Dynabeads® (Invitrogen). Cells were plated on small sterilized glass shards in 40 mm petri dishes and incubated at 37 °C (5% CO2) for at least 24 h before electrophysiological recording.
(§2) Glass shards containing plated cells were placed in a recording chamber mounted on an inverted microscope (Nikon Diaphot, USA). The cells were continuously superfused with a pre-warmed (37 °C) standard Tyrode's solution containing (in mM) the following: 140 NaCl, 4 KCl, 2.5 CaCl2, 1 MgCl2, 10 Glucose, 5 HEPES (titrated to pH 7.4 with NaOH). […] Patch-pipettes were dialysed with an intracellular solution containing (in mM) the following: 130 KCl, 1 MgCl2, 5 EGTA, 5 MgATP, 10 HEPES (titrated to pH 7.2 with KOH). All recordings were made using an Axopatch 200B amplifier (Axon Instruments, now Molecular Devices) and a CV203BU head-stage. Pipette resistance compensation was between 70 and 80%. […] Data digitization rates were 10–25 kHz during all voltage protocols and an appropriate bandwidth of 2–10 kHz was set on the amplifier.
For statistical analysis, data were subject to the Kolmogorov–Smirnov normality test. Statistical comparisons were made using paired or unpaired two-tailed t tests, Wilcoxon matched pairs signed rank test, Mann–Whitney U test and one way (repeated measures, where indicated) or two way ANOVA, as appropriate.
Block of IhERG was assessed by calculating the reduction in drug of the outward ‘tail’ current at − 40 mV (assessed as the difference in magnitude between peak tail current and instantaneous current activated by the brief (50 ms) depolarization from − 80 to − 40 mV [[24,34,37]]). […] The fractional inhibition at each of four concentrations was calculated using Eq. (1) (supplementary information) and the mean values were plotted as shown in Fig. 1D and then fitted with a standard Hill equation (Eq. (2), supplementary information). […] The low expression and kinetics of some mutant channels included in this study requires that IhERG be studied as an inward current in high (94 mM) [K^+]o [[34,35,37]].
We tested the effect of two concentrations (10 and 100 μM) of each analogue applied from the cell exterior (superfusate) and interior (the latter through the patch-pipette). […] As soon as the whole-cell configuration was achieved the drug molecules were free to diffuse inside the cytoplasm, precluding cells acting as their own control.

The conditions of data set [2]: cited from earlier work.
Data set [3] concerns the target T2, F656A hERG (Homo sapiens, UniProt Q12809, F656A). As to the kind of experiment: Patch clamp of F656A S6 helix mutant IhERG. The format is cell-based. The arrangement: expressed in transfected cells; host or cells: HEK cells. The note with it: internal (patch-pipette) application 100 µM, tails at -120 mV, n=8 vs control n=12.
Protocol: as §1, §2
To investigate potential binding determinants in the pore region we studied alanine mutants of three residues (G648, Y652 and F656) located within the channel inner cavity on the S6 helix. […]
In another data set the test system is F656V hERG. Particulars: cited from earlier work.
The next data set deals with Y652A hERG (Homo sapiens, UniProt Q12809, Y652A). The arrangement: expressed in transfected cells. The note with it: 300 μM (profound blocking concentration for WT IhERG), Xenopus oocyte expression; cited from earlier work.
Y652A hERG, sequence (Q12809 whole entry Y652A): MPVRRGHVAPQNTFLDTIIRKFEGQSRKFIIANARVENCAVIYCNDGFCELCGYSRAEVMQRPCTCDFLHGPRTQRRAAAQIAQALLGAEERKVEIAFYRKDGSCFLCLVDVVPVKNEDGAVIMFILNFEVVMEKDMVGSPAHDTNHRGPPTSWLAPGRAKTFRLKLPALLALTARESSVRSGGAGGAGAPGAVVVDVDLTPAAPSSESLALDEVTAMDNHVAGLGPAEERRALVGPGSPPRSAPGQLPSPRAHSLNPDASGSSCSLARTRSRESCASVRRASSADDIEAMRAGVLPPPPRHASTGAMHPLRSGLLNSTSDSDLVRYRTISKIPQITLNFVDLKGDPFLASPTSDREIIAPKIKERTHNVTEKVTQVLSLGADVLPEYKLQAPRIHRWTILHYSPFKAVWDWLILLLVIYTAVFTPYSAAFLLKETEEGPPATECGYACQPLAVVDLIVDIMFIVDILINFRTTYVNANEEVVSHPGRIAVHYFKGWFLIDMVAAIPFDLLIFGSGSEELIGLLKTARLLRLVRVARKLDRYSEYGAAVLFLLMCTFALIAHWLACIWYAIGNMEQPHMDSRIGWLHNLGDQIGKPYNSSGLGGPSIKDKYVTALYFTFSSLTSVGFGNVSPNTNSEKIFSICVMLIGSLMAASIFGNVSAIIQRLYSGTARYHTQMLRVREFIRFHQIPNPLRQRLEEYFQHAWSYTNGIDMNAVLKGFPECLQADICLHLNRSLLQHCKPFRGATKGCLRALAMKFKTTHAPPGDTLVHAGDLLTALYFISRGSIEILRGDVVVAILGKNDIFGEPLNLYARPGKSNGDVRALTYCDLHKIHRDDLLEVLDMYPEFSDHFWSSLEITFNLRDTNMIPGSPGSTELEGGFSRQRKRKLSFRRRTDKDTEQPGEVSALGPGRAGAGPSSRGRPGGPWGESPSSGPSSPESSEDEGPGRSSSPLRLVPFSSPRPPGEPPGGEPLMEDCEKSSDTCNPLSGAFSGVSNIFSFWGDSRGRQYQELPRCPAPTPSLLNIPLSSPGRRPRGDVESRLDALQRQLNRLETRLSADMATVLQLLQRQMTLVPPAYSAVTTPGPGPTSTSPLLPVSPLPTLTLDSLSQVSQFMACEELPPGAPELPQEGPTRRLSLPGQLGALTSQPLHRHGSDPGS
Data set [4] deals with T2, F656A hERG. Particulars: 300 μM (profound blocking concentration for WT IhERG), Xenopus oocyte expression; cited from earlier work.
Data set [5] concerns Kv1.5 V505 mutated to phenylalanine. Also noted: method as in PMID 17872968. The note with it: cited from earlier work.
Data set [6] relates to feline ventricular E-4031 sensitive delayed rectifier current. The note with it: cited from earlier work.
The next data set concerns L-type calcium current. The note with it: cited from earlier work.
[7] abbreviates: external application (superfusate) 10 μM.
The mark [8] stands for this setting: external application (superfusate) 100 μM.
[9] abbreviates: internal application via patch-pipette 10 μM.
Setting [10] is: internal application via patch-pipette 100 μM.

T2 sequence (Q12809 whole entry F656A): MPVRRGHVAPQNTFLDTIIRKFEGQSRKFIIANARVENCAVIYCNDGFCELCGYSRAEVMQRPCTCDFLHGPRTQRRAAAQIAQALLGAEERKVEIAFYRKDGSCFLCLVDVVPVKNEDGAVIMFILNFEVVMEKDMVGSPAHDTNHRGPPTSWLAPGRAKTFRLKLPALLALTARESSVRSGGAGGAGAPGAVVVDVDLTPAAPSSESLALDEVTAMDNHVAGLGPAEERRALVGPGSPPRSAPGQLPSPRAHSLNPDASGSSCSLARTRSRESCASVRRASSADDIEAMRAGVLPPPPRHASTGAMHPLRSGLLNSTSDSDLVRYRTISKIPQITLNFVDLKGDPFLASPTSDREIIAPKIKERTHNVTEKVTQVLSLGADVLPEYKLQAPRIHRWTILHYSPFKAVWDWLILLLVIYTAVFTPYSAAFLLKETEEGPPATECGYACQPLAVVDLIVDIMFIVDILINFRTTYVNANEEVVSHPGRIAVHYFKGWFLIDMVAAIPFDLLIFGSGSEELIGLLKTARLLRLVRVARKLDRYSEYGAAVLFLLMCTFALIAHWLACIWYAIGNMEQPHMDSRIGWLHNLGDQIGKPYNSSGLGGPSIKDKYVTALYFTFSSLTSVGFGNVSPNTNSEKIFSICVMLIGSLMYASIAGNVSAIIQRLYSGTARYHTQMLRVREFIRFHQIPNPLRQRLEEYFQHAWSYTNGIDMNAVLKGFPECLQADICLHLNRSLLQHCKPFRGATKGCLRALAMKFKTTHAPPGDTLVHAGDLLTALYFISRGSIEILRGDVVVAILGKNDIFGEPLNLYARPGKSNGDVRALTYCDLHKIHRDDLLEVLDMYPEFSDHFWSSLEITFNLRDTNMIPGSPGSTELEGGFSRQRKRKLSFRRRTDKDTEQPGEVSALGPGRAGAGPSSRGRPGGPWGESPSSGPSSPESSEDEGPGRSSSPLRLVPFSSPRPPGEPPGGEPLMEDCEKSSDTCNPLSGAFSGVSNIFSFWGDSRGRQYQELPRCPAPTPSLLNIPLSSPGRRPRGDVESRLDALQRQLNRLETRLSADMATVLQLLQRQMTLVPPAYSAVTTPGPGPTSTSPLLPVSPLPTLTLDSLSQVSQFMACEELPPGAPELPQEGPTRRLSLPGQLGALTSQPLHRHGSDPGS
N588K hERG, sequence (Q12809 whole entry N588K): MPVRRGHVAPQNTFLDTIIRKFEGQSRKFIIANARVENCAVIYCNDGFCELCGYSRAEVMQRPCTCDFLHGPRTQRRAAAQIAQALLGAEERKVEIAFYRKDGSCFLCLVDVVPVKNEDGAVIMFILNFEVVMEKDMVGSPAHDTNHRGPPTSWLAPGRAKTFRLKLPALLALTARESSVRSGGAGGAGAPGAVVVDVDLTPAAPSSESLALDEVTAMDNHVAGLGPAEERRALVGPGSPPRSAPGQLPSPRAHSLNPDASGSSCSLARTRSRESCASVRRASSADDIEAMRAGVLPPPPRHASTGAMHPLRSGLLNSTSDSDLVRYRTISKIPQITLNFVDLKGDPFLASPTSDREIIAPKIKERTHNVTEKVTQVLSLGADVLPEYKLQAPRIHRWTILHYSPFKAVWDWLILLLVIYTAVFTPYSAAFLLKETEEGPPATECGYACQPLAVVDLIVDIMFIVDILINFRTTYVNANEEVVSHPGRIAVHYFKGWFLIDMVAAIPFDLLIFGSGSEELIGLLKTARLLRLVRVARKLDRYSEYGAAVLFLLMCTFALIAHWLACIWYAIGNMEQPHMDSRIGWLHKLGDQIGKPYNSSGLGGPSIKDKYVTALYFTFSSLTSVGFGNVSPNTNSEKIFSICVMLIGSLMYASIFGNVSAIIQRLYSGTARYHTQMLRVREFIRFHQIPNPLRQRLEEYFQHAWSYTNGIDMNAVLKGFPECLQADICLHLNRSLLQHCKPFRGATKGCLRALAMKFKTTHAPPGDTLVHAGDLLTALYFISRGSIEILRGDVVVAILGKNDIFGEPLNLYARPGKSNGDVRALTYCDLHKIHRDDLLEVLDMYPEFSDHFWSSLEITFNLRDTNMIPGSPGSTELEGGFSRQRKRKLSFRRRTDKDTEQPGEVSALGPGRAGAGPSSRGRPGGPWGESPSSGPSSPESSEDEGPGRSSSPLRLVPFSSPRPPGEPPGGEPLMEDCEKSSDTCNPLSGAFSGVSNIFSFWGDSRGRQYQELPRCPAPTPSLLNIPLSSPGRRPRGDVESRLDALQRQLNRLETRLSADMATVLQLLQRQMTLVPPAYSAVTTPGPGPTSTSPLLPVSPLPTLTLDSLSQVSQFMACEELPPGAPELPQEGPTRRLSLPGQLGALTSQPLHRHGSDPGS

Consider `CC(C)NC[C@@H](O)c1ccc(NS(C)(=O)=O)cc1` [D-Sotalol], for which the “Fold-change in IC50 N588K compared to WT IhERG” value at N588K hERG is on record as 20 fold.

In the case of `O=C(NCCN1CCOCC1)c1cc(OCC(F)(F)F)ccc1OCC(F)(F)F` [NU-Flec], the “Fraction of unblocked IhERG” value in [1] (setting [7]) is on record as 75.8 ± 4.4%; in data set [1] (setting [8]), 50.2 ± 4.3%. The “Whole-cell IhERG current density” value in data set [1] (setting [9]) worked out at 283.2 ± 63.4 pA/pF; in [1] (setting [10]) it was 359.8 ± 56.1 pA/pF. Also, in [2], the pKa (in general, the negative logarithm of the acid dissociation constant) was 6.3.

With `C[N+]1(C)CCCCC1CNC(=O)c1cc(OCC(F)(F)F)ccc1OCC(F)(F)F` (centres unmarked) [QX-Flec], the “Fraction of unblocked IhERG” value in [1] (setting [7]) came out at 72.2 ± 4.6%; in data set [1] (setting [8]), 54.6 ± 3.5%. For the same compound, the “Whole-cell IhERG current density” value in data set [1] (setting [9]) was 55.3 ± 5.9 pA/pF; in data set [1] (setting [10]), 9.3 ± 1.9 pA/pF. For the same compound, the “Effect on density of inward F656A IhERG tails vs drug-free control” value at F656A hERG [3] is “ineffective; also recorded: no significant difference; also recorded: little inhibition”.

As to `C=C[C@H]1C[N@@]2CC[C@H]1C[C@@H]2[C@@H](O)c1ccnc2ccc(OC)cc12` [Quinidine], in the data set with F656V hERG, the “Increase in IhERG IC50 with F656V” value is ~ 27 fold.

As for `CC[C@H]1[C@@H]2C[C@H]3[C@@H]4N(C)c5ccccc5[C@]45C[C@@H]([C@H]2[C@H]5O)N3[C@@H]1O` [ajmaline], the “Inhibitory action on Y652A IhERG” value at Y652A hERG is given as “ineffective”. On F656A hERG [4], the “Inhibitory action on F656A IhERG” value is “ineffective”.

`O=C(NCC1CCCCN1)c1cc(OCC(F)(F)F)ccc1OCC(F)(F)F` (centres unmarked) [flecainide, Flecainide acetate]: the “Increase in blocking potency on mutating V505 to phenylalanine” value in [5] is on record as 9 fold. Also, the IC50 (in general, the midpoint of a concentration-inhibition curve) was 2.1 µM in data set [6] and around 20 µM in the data set with L-type calcium current.
